In patent US20070099853A1, “Agent for improving physiological motor functions” (SUNTORY LIMITED, priority 2003, published 2007):

Assay: FRAP activity test and antioxidant evaluation test using rats
Format: in vivo, rats of Wistar strain
Settings: male Wistar rats, oral, 100 mg/kg
Protocol: Male rats of Wistar strain (9 weeks age) were fasted for one night, a pine bark extract mentioned in Example 1 or vitamin C was compulsorily administered via oral route, and blood was collected from tail vein from time to time to prepare plasma samples. FRAP value of the plasma sample was measured by a method of Benzie (Benzie, I. F. F. and Strain, J. J., Anal. Biochem., 1996, Volume 239, pages 70 to 76) and its changes with a lapse of time were traced as an index for antioxidant activity in blood. The plasma sample (10 μL) was added to 990 μL of FRAP reagent containing 20 mM of FeCl3 followed by being allowed to stand at 37° C. for 4 minutes, and changes in absorbance at 593 nm were measured. The same operation was conducted using a solution containing a predetermined concentration of […] sample and, from the changes in absorbance, a calibration curve for FRAP values was prepared.

## O=C1O[C@H]([C@@H](O)CO)C(O)=C1O [vitamin C]
  FRAP value in blood: an increase in the FRAP value was also observed
